Measured values published in US4992442A, “Pyrrolo(3,2-e)pyrazolo(1,5-a)pyrimidine derivative and medicine comprising the same” (Pola Chemical Industries Inc., Japan, priority 1988, dated 1991).

What was measured:
coronary artery [1] = experiment: Vasodilative activity, Magnus method, dog coronary artery contracted with potassium chloride; conditions: Canis lupus familiaris; 60 mM potassium chloride; read-out: 50% Contraction-inhibitive Concentrations, Coronary Artery, KCl
Protocol: (§1) A bastard, male, adult dog weighing about 8-10 kg was anesthetized with pentobarbital sodium (25 mg/kg, i.v.) and killed by bleeding. Its basilar and coronary arteries were immediately extracted. […] Static tensions of the ring were isometrically measured and recorded.
(§2) Test compounds were accumulatively given to specimens contracted with 1×10^-7 M (final concentration) U-46619 to the final concentration of 1×10^-7 to 1×10^-4 M to investigate their vasodilative activities.
(§3) The vasodilative activity and coronary blood flow increase activity were respectively measured according to the following Methods 1 and 2.
(§4) The same Magnus method was used as in Experimental Example 1, except that instead of 1×10^-7 M (final concentration) U-46619, 5×10^-6 M (final concentration), PGF2 α or 60 mM potassium chloride was used.

coronary blood flow = experiment: Coronary blood flow increase activity in anesthetized dog; assay type: in vivo; conditions: maximum flow relative to before administration
Excerpt: as §3
The heart was exposed by an incision into pericardium through the left quartus costa rib. About 1 cm of a coronary vessel was peeled off from the surrounding tissues at about 1 cm from the left ramus circumplexus and a blood flow meter probe was installed for measuring the coronary blood flow. Left ventricle pressure, heart rate, right femoral artery pressure, and lower extremity blood flow rate were monitored. All test compounds were intravenously administered.
The maximum coronary blood flow rates achieved after the administration as a percentage of the blood flow before administration was taken as the coronary blood flow increase activity.

coronary artery [2] = experiment: Vasodilative activity, Magnus method, dog coronary artery contracted with PGF2 α; conditions: Canis lupus familiaris; PGF2 α 5×10^-6 M; read-out: 50% Contraction-inhibitive Concentrations, Coronary Artery, PGF2 α
Protocol: as §1, §2, §3, §4

[3] = Acute toxicity test, oral, mice; conditions: mouse, in vivo, ICR male mice, 14 days observation
Protocol: An acute toxicity test on compounds of the present invention was performed according to the following method.
ICR male mice were purchased at 4 weeks of age and fed for 10 days before testing. The test compound suspended in 1% methylcellullose solution was orally administered using a metallic gaster probe at a dose of 0.1 ml (as the test compound) per […] of body weight. The mice were fasted for 15 hours before the administration. Observation was made for 14 days after the administration, and the LD50 value was determined from the survival rate by the Richfield Wilcoxin method.

basilar artery [4] = experiment: Vasodilative activity, Magnus method, dog basilar artery contracted with potassium chloride; conditions: Canis lupus familiaris; 60 mM potassium chloride; read-out: 50% Contraction-inhibitive Concentrations, Basilar Artery, KCl
Protocol: as §1, §2, §3, §4

basilar artery [5] = experiment: Vasodilative activity, Magnus method, dog basilar artery contracted with PGF2 α; conditions: Canis lupus familiaris; PGF2 α 5×10^-6 M; read-out: 50% Contraction-inhibitive Concentrations, Basilar Artery, PGF2 α
Protocol: as §1, §2, §3, §4

trachea [6] = experiment: Tracheal expansion activity against histamine (His) induced tracheal contraction; design: species or system Hartley guinea pig; conditions: for IC50: Cavia porcellus, His 1×10^-6 M, read-out: 50% Contraction-inhibitive Concentration, His Contraction; for Ratio of Effectiveness, His Contraction: reverse ratio of 50% contraction-inhibitive concentration to that of theophylline
Excerpt: (§6) Tracheal expansion activity against tracheal contraction induced by acetyl choline (ACh) and histamine (His)
(§7) A Hartley guinea pigs (male, weight: 400-500 g) was killed by bleeding and its trachea was immediately extracted. […] Static tensions was isometrically measured.

trachea [7] = experiment: Tracheal expansion activity against acetyl choline (ACh) induced tracheal contraction; design: species or system Hartley guinea pig; conditions: for IC50: Cavia porcellus, ACh 1×10^-6 M, read-out: 50% Contraction-inhibitive Concentration, ACh Contraction; for Ratio of Effectiveness, ACh Contraction: reverse ratio of 50% contraction-inhibitive concentration to that of theophylline
Excerpt: as §6, §7

basilar artery [8] = experiment: Vasodilative activity, Magnus method, dog basilar artery ring contracted with U-46619; conditions: for IC50: Canis lupus familiaris, U-46619 1×10^-7 M, read-out: 50% Contraction-inhibitive Concentrations; for vasodilative activity, times stronger than trapidil: U-46619, relative to trapidil
Protocol: (§5) Vasodilative activity of the compound of the present invention was measured by the Magnus method.
as §1, §2

coronary artery [9] = experiment: Vasodilative activity, Magnus method, dog coronary artery ring contracted with U-46619; conditions: for IC50: Canis lupus familiaris, U-46619 1×10^-7 M, read-out: 50% Contraction-inhibitive Concentrations; for vasodilative activity, times stronger than trapidil: U-46619, relative to trapidil
Protocol: as §5, §1, §2

Cc1nc2c(C#N)cnn2c2c1CCN2CC(C)C [Compound No. 4, 8-iso-butyl-3-cyano-6,7-dihydro-5-methyl-8H-pyrrolo [3,2-e]pyrazolo[1,5-a]pyrimidine]
IC50 (coronary artery [1]): 100 µM | Rate of Coronary Blood Flow Increase, 50 μg/kg (iv) (coronary blood flow): 20.4 ± 6.3% | Rate of Coronary Blood Flow Increase, 100 μg/kg (iv) (coronary blood flow): 52.8 ± 21.1% | IC50 (coronary artery [2]): 25 µM | LD50 at 336 h [3]: ≥ 1000 mg/kg | IC50 (basilar artery [4]): 43 µM | IC50 (basilar artery [5]): > 100 µM

CCCCCCN1CCc2c(C)nc3c(C#N)cnn3c21 [Compound No. 7, 3-cyano-6,7-dihydro-8-hexyl-5-methyl-8H-pyrrolo [3,2-e]pyrazolo[1,5-a]pyrimidine]
IC50 (coronary artery [1]): > 100 µM | IC50 (trachea [6]): 13 µM | Ratio of Effectiveness, His Contraction (trachea [6]): 0.5 | IC50 (coronary artery [2]): > 100 µM | LD50 at 336 h [3]: ≥ 1000 mg/kg | IC50 (basilar artery [4]): 85 µM | IC50 (trachea [7]): 6.3 µM | Ratio of Effectiveness, ACh Contraction (trachea [7]): 0.8 | IC50 (basilar artery [5]): > 100 µM

CCCCCN1CCc2c(C)nc3c(C#N)cnn3c21 [Compound No. 6, 3-cyano-6,7-dihydro-5-methyl-8-pentyl-8H-pyrrolo [3,2-e]pyrazolo[1,5-a]pyrimidine]
IC50 (coronary artery [1]): > 100 µM | Rate of Coronary Blood Flow Increase, 50 μg/kg (iv) (coronary blood flow): 7.3 ± 3.1% | Rate of Coronary Blood Flow Increase, 100 μg/kg (iv) (coronary blood flow): 15.4 ± 5.7% | IC50 (trachea [6]): 16 µM | Ratio of Effectiveness, His Contraction (trachea [6]): 0.4 | IC50 (coronary artery [2]): > 100 µM | LD50 at 336 h [3]: ≥ 1000 mg/kg | IC50 (basilar artery [4]): > 100 µM | IC50 (trachea [7]): 3.2 µM | Ratio of Effectiveness, ACh Contraction (trachea [7]): 1.6 | IC50 (basilar artery [5]): > 100 µM

Cc1nc2c(C#N)c(C)nn2c2c1CCN2C(C)(C)C [Compound No. 2, 8-tert-butyl-3-cyano-6,7-dihydro-2,5-dimethyl-8H-pyrrolo[3,2-e]pyrazolo[1,5-a]pyrimidine]
LD50 at 336 h [3]: ≥ 2000 mg/kg | IC50 (basilar artery [8]): 2.7 µM | vasodilative activity, times stronger than trapidil (basilar artery [8]): 37 times | IC50 (coronary artery [9]): 1.8 µM | vasodilative activity, times stronger than trapidil (coronary artery [9]): 35 times

Cc1nc2ccnn2c2c1CCN2C(C)(C)C [Compound No. 11, 8-tert-butyl-6,7-dihydro-5-methyl-8H-pyrrolo[3,2-e]pyrazolo[1,5-a]pyrimidine]
IC50 (coronary artery [1]): 16 µM | IC50 (trachea [6]): 6.3 µM | Ratio of Effectiveness, His Contraction (trachea [6]): 1.0 | IC50 (coronary artery [2]): 3.2 µM | LD50 at 336 h [3]: ≥ 1000 mg/kg | IC50 (basilar artery [4]): 10 µM | IC50 (basilar artery [5]): 7.9 µM

CCCCN1CCc2c(C)nc3c(C#N)cnn3c21 [Compound No. 3, 8-butyl-3-cyano-6,7-dihydro-5-methyl-8H-pyrrolo [3,2-e]pyrazolo[1,5-a]pyrimidine]
IC50 (coronary artery [1]): > 100 µM | Rate of Coronary Blood Flow Increase, 50 μg/kg (iv) (coronary blood flow): 11.5 ± 4.6% | Rate of Coronary Blood Flow Increase, 100 μg/kg (iv) (coronary blood flow): 37.9 ± 16.3% | IC50 (trachea [6]): 30 µM | Ratio of Effectiveness, His Contraction (trachea [6]): 2.1 | IC50 (coronary artery [2]): > 100 µM | LD50 at 336 h [3]: ≥ 1000 mg/kg | IC50 (basilar artery [4]): 34 µM | IC50 (basilar artery [5]): > 100 µM

Cc1nc2c(C#N)cnn2c2c1CCN2C1CCCC1 [Compound No. 8, 3-cyano-8-cyclopentyl-6,7-dihydro-5-methyl-8H-pyrrolo [3,2-e]pyrazolo[1,5-a]pyrimidine]
IC50 (coronary artery [1]): > 100 µM | IC50 (trachea [6]): 1 µM | Ratio of Effectiveness, His Contraction (trachea [6]): 6.3 | IC50 (coronary artery [2]): 0.2 µM | LD50 at 336 h [3]: ≥ 1000 mg/kg | IC50 (basilar artery [4]): > 100 µM | IC50 (trachea [7]): 0.13 µM | Ratio of Effectiveness, ACh Contraction (trachea [7]): 38.5 | IC50 (basilar artery [5]): > 100 µM

Cc1nc2c(C#N)cnn2c2c1CCN2C(C)(C)C [Compound No. 1, 8-tert-butyl-3-cyano-6,7-dihydro-5-methyl-8H-pyrrolo[3,2-e]pyrazolo[1,5-a]pyrimidine]
IC50 (coronary artery [1]): > 100 µM | Rate of Coronary Blood Flow Increase, 50 μg/kg (iv) (coronary blood flow): 51.9 ± 11.9% | Rate of Coronary Blood Flow Increase, 100 μg/kg (iv) (coronary blood flow): 181.6 ± 27.8% | IC50 (trachea [6]): 1.3 µM | Ratio of Effectiveness, His Contraction (trachea [6]): 4.9 | IC50 (coronary artery [2]): 1.3 µM | LD50 at 336 h [3]: ≥ 2000 mg/kg | IC50 (basilar artery [8]): 2.7 µM | vasodilative activity, times stronger than trapidil (basilar artery [8]): 37 times | IC50 (coronary artery [9]): 1.6 µM | vasodilative activity, times stronger than trapidil (coronary artery [9]): 39 times | IC50 (basilar artery [4]): > 100 µM | IC50 (trachea [7]): 0.2 µM | Ratio of Effectiveness, ACh Contraction (trachea [7]): 25.0 | IC50 (basilar artery [5]): 1.6 µM

Cn1c(=O)c2[nH]cnc2n(C)c1=O [Theophylline, reference compound]
IC50 (trachea [6]): 6.3 µM | IC50 (trachea [7]): 5 µM

Cc1nc2c(C#N)cnn2c2c1CCN2N1CCOCC1 [Compound No. 10, 3-cyano-6,7-dihydro-5-methyl-8-(4-morpholyl)-8H-pyrrolo[3,2-e]yrazolo[1,5-a]pyrimidine]
IC50 (coronary artery [1]): > 100 µM | IC50 (trachea [6]): 5 µM | Ratio of Effectiveness, His Contraction (trachea [6]): 1.3 | IC50 (coronary artery [2]): > 100 µM | LD50 at 336 h [3]: ≥ 1000 mg/kg | IC50 (basilar artery [4]): > 100 µM | IC50 (trachea [7]): 1.3 µM | Ratio of Effectiveness, ACh Contraction (trachea [7]): 3.9 | IC50 (basilar artery [5]): > 100 µM

CCC(C)N1CCc2c(C)nc3c(C#N)cnn3c21 (centres unmarked) [Compound No. 5, 8-sec-butyl-3-cyano-6,7-dihydro-5-methyl-8H-pyrrolo [3,2-e]pyrazolo[1,5-a]pyrimidine]
IC50 (coronary artery [1]): > 100 µM | Rate of Coronary Blood Flow Increase, 50 μg/kg (iv) (coronary blood flow): 8.2 ± 3.7% | Rate of Coronary Blood Flow Increase, 100 μg/kg (iv) (coronary blood flow): 27.3 ± 5.2% | IC50 (trachea [6]): 0.4 µM | Ratio of Effectiveness, His Contraction (trachea [6]): 15.8 | IC50 (coronary artery [2]): 3.2 µM | LD50 at 336 h [3]: ≥ 1000 mg/kg | IC50 (basilar artery [4]): > 100 µM | IC50 (trachea [7]): 0.5 µM | Ratio of Effectiveness, ACh Contraction (trachea [7]): 10.0 | IC50 (basilar artery [5]): 2.5 µM

Cc1nc2c(C#N)cnn2c2c1CCN2CC1CCCCC1 [Compound No. 9, 3-cyano-8-cyclohexylmethyl-6,7-dihydro-5-methyl-8H-pyrrolo[3,2-e]pyrazolo[1,5-a]pyrimidine]
IC50 (coronary artery [1]): > 100 µM | IC50 (coronary artery [2]): > 100 µM | LD50 at 336 h [3]: ≥ 1000 mg/kg | IC50 (basilar artery [4]): > 100 µM | IC50 (trachea [7]): 0.79 µM | Ratio of Effectiveness, ACh Contraction (trachea [7]): 6.3 | IC50 (basilar artery [5]): > 100 µM
